Test results taken from the NIST ThermoML archive (doi:10.1016/j.jct.2012.01.005).

Key:
[1] = Liquid; for mass density: 298.15 K, 101.33 kPa, Buoyancy - hydrostatic balance
[2] = refractive index (Na D-line) (dimensionless); conditions: 298.15 K; 101.33 kPa; Liquid; Standard Abbe refractometry

CCCC(=O)OCC1CO1 (stereo not drawn) [glycidyl butyrate]
Conditions	mass density [kg/m3]	refractive index
[1]	1047	–
[2]	–	1.429

[1], Closed cell (Static) method
Conditions	vapor or sublimation pressure [kPa]
407.85 K	15.74
420.25 K	23.87
427.85 K	29.87
434.15 K	36.41
439.15 K	41.34
444.25 K	46.67
449.15 K	55.99
449.25 K	54.4
453.85 K	62.67
458.15 K	69.6
460.45 K	74.67
464.55 K	82.67
466.55 K	87.33
467.15 K	88.66
468.75 K	93.33
471.15 K	100

ClCC1CO1 (stereo not drawn) [1-chloro-2,3-epoxypropane]
Conditions	mass density [kg/m3]	refractive index
[1]	1175.9	–
[2]	–	1.434

[1], Visual
Conditions	vapor or sublimation pressure [kPa]
370.95 K	55.99
384.15 K	88.66
389.35 K	100
